# Experiments:
# [1] = tested on: Oxidatively competent cells; assay: SYTOX cell death assay in oxidatively competent cells treated with antimycin A; type: cell-based; details: for cell death when tested individually: highest concentration tested
# Procedure: Oxidatively competent cells are prepared as described in Example 1. and Example 2.A and are seeded onto 96-well plates at 1×10^3/well or 2.5×10^3/well as passage 15. The cells are grown in DMEM with 10% FBS and 1.5 g/L sodium bicarbonate for 24 or 48 hours to reach 85% confluence. The cells are washed once with HBSS and then 100 μl of HBSS containing different concentration of AA (Sigma, Cat #A 8674) is added to the cells. AA is dissolved in DMSO to make a stock solution of 50 mM, then diluted with HBSS to 25, 12.5, 6.25, 3.125, and 1.56 μM for dose-response curves. The cells, with or without AA, are incubated at 37° C. in a 5% CO2 humidified incubator for 1 to 5 hours. The concentration of AA is chosen to induce 75% or 100% cell death as a screening dose to test the effect of agents to protect against AA- induced cell toxicity. The concentration of agents used for screening will be dependent upon the agents. Certain control groups contain 100 μl of HBSS only.
# (§1) SYTOX Green nucleic acid stain is a high-affinity nucleic acid stain that easily penetrates cells with a compromised plasma membrane but will not cross the membrane of live cells. The nucleic acids of dead cells fluoresce bright green at 524 nm when excited with the 488 nm spectral source or with any other 450-500 nm source. […] In the cell viability assay chemical ischemia is created in cells and then cells are incubated with the SYTOX dye. The compound antimycin is used to simulate ischemia at the same time as stimulating the cells with forskolin. […] The assay is performed on cells grown in 96-well format allowing high throughput screening of compounds.
# (§2) Compound(s) are mixed with the 1 μM SYTOX working solution and added to the washed cell culture wells. Fluorescence is measured at designated time points (488 nm excitation and 530 nm emission). All of the sample readings subtract the background readings, which is cell-free wells only containing HBSS buffer with SYTOX green dye. The data is compared to non-treated cells (control) and is expressed as mean±S.D. from 4 culture wells. SYTOX Green fluorescence units obtained from each group are corrected for basal fluorescence (cell-free wells with only HBSS and fluorescence reagent). Data are represented as mean±SD. A paired t-test is performed comparing treated groups (Toxin+Agent) with non-treated groups (Toxin only) after subtracting the control groups (HBSS only) for each data set. Comparisons among groups are statistically evaluated by two-tailed t-test (Graphpad Prism Software, version 2.0). Differences are considered significant at P<0.05.
# Oxidatively competent cells were treated simultaneously with hesperetin, chrysin and 100 nM antimycin A2.C. The cells were treated with various low concentrations of hesperetin and various concentrations of chrysin (Sigma Chemical Co., cat. #C3018). Hesperetin, chrysin and antimycin A were mixed together before treating the cells. Cell viability was measured at time points up to 5 hours using SYTOX, as described in Example 2.F.
# In experiments carried out in support of the invention, various concentrations of diosmin and alpha-tocopherol were tested for synergistic ability to ameliorate disruption of energy metabolism secondary to stress. Oxidatively competent cells were treated simultaneously with diosmin, alpha-tocopherol and antimycin A2.C. The cells were treated with various low concentrations of diosmin (Sigma Chemical Co., cat. #D3525) and various low concentrations of (+/−) alpha-tocopherol. Diosmin, alpha-tocopherol and antimycin were mixed together before treating cells. Cell viability was measured 4 hours after treatment using SYTOX. […] Likewise, the combination of disomin (11-100 μM) with 1.1 μg/ml (+/−) alpha tocopherol was synergistic. […] Diosmin alone provided no protection at a concentration of 100 μM. […] A combination of 100 μM diosmin and 11 μg/ml (+/−) alpha tocopherol was also synergistic. […]
# GCL1 cells = assay: SYTOX cell death assay in GCL1 cells treated with antimycin A (chemical ischemia); type: cell-based, rat hepatoma cells (fao) / human fibroblasts (W138) hybrid; details: for reduction in cell death: control 82.9%
# Source text: At greater than 80% confluence, more than 80% of the cells participate in forming one or more phaselucent, spherical structures that are located between cells, termed bile canicular-like spaces. In contrast to the majority of cell lines maintained in culture which are fermentative, GCL1 cells, when at their maximal density and polarity, are highly oxidative (i.e., they can be readily killed by inhibitors of oxidative phosphorylation or electron transport uncouplers). […] These cells are amenable to use in high throughput screening (HTS) technology.
# The cells, with or without AA, are incubated at 37° C. in a 5% CO2 humidified incubator for 1 to 5 hours. […] The concentration of agents used for screening will be dependent upon the agents. Certain control groups contain 100 μl of HBSS only.
# as §1
# Aliquot at 100 μl. This 10 mM stock is then diluted to 1 mM with DMSO and aliquoted at 25 μL. Both the 10 mM and the 1 mM are stored at −20° C. until use. […] Aliquot at 100 μl and store at −20° C. until use. iv.) HBSS-SYTOX-FORSKOLIN-ANTIMYCIN (H-S-F-A) solution: H-S-F-A solution is made up fresh prior to each assay in sterile 175 ml or 225 ml Falcon bottles. […]
# Cells are grown in 96-well black plates (with or without clear bottoms) at a density of 1000 cells per well for 24 hours. The necessary number of 96-well plates containing the specific cell type are obtained and placed in the laminar flow safety cabinet. A sterile microtiter basin is filled with the appropriate volume of pre-warmed 1×HBSS. Using aseptic technique and an 8-channel aspirator, the media is carefully removed from the cells and replaced with 200 μl of 1×HBSS. This is done as quickly as possible to prevent the cells drying out. The plates are then placed in the humidified 37° C. incubators of the Biomek 2000 Side Loader. Four plates are washed at a time so as to minimize the time that the cells are sitting in 1×HBSS prior to addition of the H-S-A-compound test solution.
# as §2
# Hesperetin, diosmin, luteolin and quercetin were tested individually for their ability to counteract disruptions of normal energy metabolism. Flavonoids were commercially obtained, generally from Sigma Chemical Co., St. Louis, Mo., and/or Aldrich Chemical Co., Milwaukee, Wis.
# [2] = cited from earlier work; for abnormalities observed for a week: administered orally to mice at 100 mg/kg (U.S. Pat. No. 5,650,433)
# [3] = flavonoid 25 μM, antimycin A 100 nM, 4 hours
# [4] = flavonoid 50 μM, antimycin A 100 nM, 4 hours
# [5] = flavonoid 100 μM, antimycin A 100 nM, 4 hours
# [6] = flavonoid 200 μM, antimycin A 100 nM, 4 hours
# [7] = flavonoid 400 μM, antimycin A 100 nM, 4 hours
structure (smiles),measurement,setting,value
"Cc1c(C)c2c(c(C)c1O)CCC(C)(CCCC(C)CCCC(C)CCCC(C)C)O2 (racemic) [(+/−) alpha-tocopherol, 2,5,7,8-tetramethyl-2-(4′,8′,12′-trimethyltridecyl)-6-chromanol]",protection,[1]; 10 μg/ml (+/−) alpha-tocopherol by itself,about 15%
same,cell death when tested individually,[1],over half of the cells died
"Cc1c(C)c2c(c(C)c1O)CC[C@@](C)(CCC[C@H](C)CCC[C@H](C)CCCC(C)C)O2 (relative stereo) [alpha-tocopherol, [2R-2R*(4R*,8R*)]-3,4-dihydro-2,5,7,8-tetramethyl-2-(4,8,12-trimethyltridecyl)-2H-1-benzopyran-6-ol]",cell death when tested individually,[1],about half of the cells died
"COc1ccc(-c2cc(=O)c3c(O)cc(O[C@@H]4O[C@H](CO[C@@H]5O[C@@H](C)[C@H](O)[C@@H](O)[C@H]5O)[C@@H](O)[C@H](O)[C@H]4O)cc3o2)cc1O [Diosmin, reference compound]",protection,"[1]; diosmin 3.3-100 μM by itself, 4 hours",not protective by itself
same,protection,[1]; diosmin alone 100 μM,no protection
same,protection,[1]; diosmin by itself 33-100 μM,not effective
same,protective effect,GCL1 cells; concentrations less than 400 μM,ineffective
same,Cell Death,GCL1 cells; [3],84.1% ± 1.6
same,Cell Death,GCL1 cells; [4],84.9% ± 1.6
same,Cell Death,GCL1 cells; [5],85.3% ± 0.6
same,Cell Death,GCL1 cells; [6],85.2% ± 2.0
same,Cell Death,GCL1 cells; [7],82.5% ± 2.6
"O=c1cc(-c2ccc(O)c(O)c2)oc2cc(O)cc(O)c12 [Luteolin, 2-(3,4-Dihydroxyphenyl)-5,7-dihydroxy-4H-1-benzopyran-4-one]",cytoprotective activity,GCL1 cells; concentrations of about 60 μM and above,exhibited cytoprotective activity
same,Cell Death,"GCL1 cells; flavonoid 15.6 μM, antimycin A 100 nM, 4 hours",78.0% ± 0.9
same,Cell Death,"GCL1 cells; flavonoid 31.25 μM, antimycin A 100 nM, 4 hours",74.5% ± 1.2
same,Cell Death,"GCL1 cells; flavonoid 62.5 μM, antimycin A 100 nM, 4 hours",69.0% ± 2.2
same,Cell Death,"GCL1 cells; flavonoid 125 μM, antimycin A 100 nM, 4 hours",53.7% ± 5.4
same,Cell Death,"GCL1 cells; flavonoid 250 μM, antimycin A 100 nM, 4 hours",33.4% ± 0.6
same,abnormalities observed for a week,[2],the same results were reported
"O=c1c(O)c(-c2ccc(O)c(O)c2)oc2cc(O)cc(O)c12 [Quercetin, 2-(3,4-Dihydroxyphenyl)-3,5,7-trihydroxy-4H-1-benzopyran-4-one]",protective activity,GCL1 cells; concentrations of 25 μM and above,protective activity is apparent
same,Cell Death,GCL1 cells; [3],68.1% ± 1.7
same,Cell Death,GCL1 cells; [4],57.1% ± 2.4
same,Cell Death,GCL1 cells; [5],22.0% ± 2.2
same,Cell Death,GCL1 cells; [6],0.0% ± 0.9
same,Cell Death,GCL1 cells; [7],1.0% ± 0.5
"Nc1ncnc2c1ncn2[C@@H]1O[C@H](CO)[C@@H](O)[C@H]1O [adenosine, 9-β-D-ribofuranosyl-9H-purin-6-amine]",protection,GCL1 cells; 11 μM adenosine alone,17.9%
"COc1ccc(-c2coc3cc(O)cc(O)c3c2=O)cc1 [biochanin A, 5,7-dihydroxy-4′-methoxyiso-flavone]",cell death when tested individually,[1],about half of the cells died
"C[N+](C)(C)CC(O)CC(=O)[O-].O=C(O)C(O)C(O)C(=O)O (centres unmarked) [carnitine tartate, carnitine tartrate]",Cell Death,"GCL1 cells; 10 mM carnitine tartrate alone, 4 hours, control 97.4%",59.5%
"O=c1cc(-c2ccccc2)oc2cc(O)cc(O)c12 [chrysin, 5,7-dihydroxy-2-phenyl-4H-1-benzopyran-4-one]",Cell Death,"[1]; 60 μM chrysin alone, control 72.9%",50.1%
"O=c1c(-c2ccc(O)cc2)coc2cc(O)ccc12 [daidzein, 7-hydroxy-3-(4-hydroxyphenyl)-4H-1-benzopyran-4-one]",cell death when tested individually,[1],over half of the cells died
"Cc1c(O)cc2c(c1C)O[C@](C)(CCC[C@H](C)CCC[C@H](C)CCCC(C)C)CC2 [gamma-tocopherol, 3,4-dihydro-2,7,8-trimethyl-2-(4,8,12-trimethyltridecyl)-2H-1-benzyopyran-6-ol]",protection,[1]; gamma-tocopherol 0.03-0.3 μg/ml by itself,not protective by itself
"NCC(=O)O [glycine, aminoacetic acid]",protection,"GCL1 cells; 100 μM glycine alone, 4 hours, control cell death 82.1%",40.8%
"COc1ccc([C@@H]2CC(=O)c3c(O)cc(O[C@@H]4O[C@H](CO[C@@H]5O[C@@H](C)[C@H](O)[C@@H](O)[C@H]5O)[C@@H](O)[C@H](O)[C@H]4O)cc3O2)cc1O [hesperidin, (S)-7-[[6O-(6-Deoxy-α-L-mannopyranosyl)-β-D-glucopyranosyl]oxy]-2,3-dihydro-5-hydroxy-2-(3-hydroxy-4-methoxyphenyl)-4H-1-benzopyran-4-one]",abnormalities observed for a week,[2],the same results were reported
same,toxicity,"[2]; orally administered to a mouse at 1000 mg/kg (U.S. Pat. No. 5,763,414)",no toxicity
same,effects on liver function,[2]; tests using mice,no adverse effects on liver function
same,toxicity or mitogenicity,[2]; tests using mice,little toxicity or mitogenicity
O=C(CO)[C@H](O)[C@H](O)CO [ribulose],reduction in cell death,"GCL1 cells; 1.25 mM ribulose by itself, 4 hours",4.4%
same,reduction in cell death,"GCL1 cells; 10 mM ribulose alone, 4 hours",26.5%

# From patent publication US6528042B1, “Compositions of flavonoids for use as cytoprotectants and methods of making and using them” (Galileo Laboratories, Inc., priority 1999, dated 2003)
